Data as given in patent publication US20100267784A1, “NOVEL 4,5-DIHYDROISOXAZOLES WITH ESTROGENIC ACTIVITY” (priority 2007, published 2010).

Columns and labels:
[1] = target: T1, ERα (Homo sapiens, UniProt P03372); test: ERα antagonism reporter (luciferase) assay in transfected COS-1 cells; format: cell-based; parameters: expressed in transfected cells; host or cells: COS-1; conditions: sample concentration 10 μM with 100 nM E2, complete antagonism corresponding to 5.7, 18 hours
T1 sequence (P03372 1-595): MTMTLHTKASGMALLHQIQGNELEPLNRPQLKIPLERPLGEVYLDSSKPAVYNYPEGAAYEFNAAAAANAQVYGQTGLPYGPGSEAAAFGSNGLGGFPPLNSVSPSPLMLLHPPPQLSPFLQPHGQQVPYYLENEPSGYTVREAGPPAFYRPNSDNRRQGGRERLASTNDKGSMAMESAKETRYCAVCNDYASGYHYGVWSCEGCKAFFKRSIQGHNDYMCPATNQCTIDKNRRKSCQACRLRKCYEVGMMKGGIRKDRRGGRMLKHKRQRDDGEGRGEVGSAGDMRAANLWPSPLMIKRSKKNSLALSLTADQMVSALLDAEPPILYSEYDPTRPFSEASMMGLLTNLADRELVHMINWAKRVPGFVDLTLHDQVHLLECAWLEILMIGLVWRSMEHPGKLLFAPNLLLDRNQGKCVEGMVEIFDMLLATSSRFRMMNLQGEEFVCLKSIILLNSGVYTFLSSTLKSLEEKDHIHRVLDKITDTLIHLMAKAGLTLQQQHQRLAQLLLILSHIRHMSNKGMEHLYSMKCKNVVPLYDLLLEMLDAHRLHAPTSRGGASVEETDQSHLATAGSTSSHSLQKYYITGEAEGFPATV
Method: Determination of the Antiestrogen Activity of the Compounds.
One day before transfection, COS-1 cells were seeded into 1 ml of DMEM (Dulbecco's modified Eagle medium, Gibco) with 10% delipidated fetal bovine serum and 0,25% (vol/vol) Penicillin-Streptomysin (Euroclone) at a density of 70×10^3 cells/well. […] After transfection, the cells received treatment with test compounds giving a final concentration of 10 μM for each compound. In the antagonist test the wells were also treated with 10^−7 M estradiol. After 18 hours, the cells were washed, lysed and assayed for luciferase and normalization for β-galactosidase activities and protein concentrations. The cells were washed with 100 μl of cold phosphate buffered saline (PBS), lysed with 35 μl 1× Reporter lysis Buffer (Promega) and frosted (−70° C.) for 30 minutes. Cell lysates were placed in 1.5 ml of propylene centrifuge tubes and centrifuged with 13200 g for 5 min in room temperature. For β-galactosidase assay 10 μl of supernatant from each cell extract was transferred to a 96-well plate (96 well Elisa Microplates, PS, Microcon) and incubated for 10 min at 37° C. with 65 μl of reaction mixture consisting 0.76 gl 100×Mg-buffer, 12.5 μl ONPG (4 mg/ml), and 54.3 μl of sodium-phosphate buffer (pH 7). The reaction was stopped with treatment of 125 μl Na2CO3. […] For the study of protein concentrations 5 μl of the supernatant was transferred to a 96-well plate (96 well Elisa Microplates, PS, Microcon) and mixed with 200 μl of 1× Bio-rad protein assay reagent. The luciferase activities were measured with Thermo Luminoscan Ascent scanner and the protein concentrations and β-galactosidase activities with Thermo Labsystem Multiscan Ex scanner. Also blank and control samples were measured. During the maintenance, transfection, and treatment with tested compounds the cells were incubated in humidified atmosphere with 5% carbon dioxide at 37° C.

[2] = target: T1, ERα; test: ERα reporter (luciferase) transactivation assay in transfected HEK293 cells; format: cell-based; parameters: expressed in transfected cells; host or cells: HEK293; conditions: sample concentration 10 μM, 24 hours, mean of at least three independent transfections
Procedure, shortened: (§1)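 HEK293 cells in phenol-free DMEM with 5% delipidated FBS were calcium-phosphate transfected for 4 h with ERα or ERβ vector, pERE2TATA-LUC reporter and pCMVβ control. Test compound (10 μM) or vehicle was applied for 24 h, then luciferase and β-galactosidase were measured. Values are means ±SEM of ≥3 transfections.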

[3] = target: T2, ERβ (Homo sapiens, UniProt Q92731); test: ERβ reporter (luciferase) transactivation assay in transfected HEK293 cells; format: cell-based; parameters: expressed in transfected cells; host or cells: HEK293; conditions: for ERβ receptor activation relative to 10 nM E2 corresponding 100: sample concentration 10 μM, 24 hours, mean of at least three independent transfections
Procedure, shortened: as §1

[4] = target: T1, ERα; test: Competitive binding against [6,7-3H(N)]estradiol in COS-1 cells transfected with human ERα; conditions: for IC50: ERα IC50, COS-1 cells, competition against labeled E2, 2 hours at 37° C.; for ERα RBA (relative binding affinity): relative to E2 = 100.0
Method: (§2) Determination of Relative Binding Affinity (RBA).
(§3) Relative binding affinities (RBA) were measured by a competitive assay against [6,7-^3H(N)]estradiol (PerkinElmer) in transsiently transfected COS-1 cells. […] After 2 hours of incubation at 37° C. the medium was removed. The cells were removed from the wells to 150 μl of 1× phosphate buffered saline (PBS), transferred to Eppendorf tubes and centrifuged at 4° C. using 4000 g for 5 min, and then washed twice with 150 μl of PBS. The cell pellets were dissolved to 50 μl of 0.5M NaOH and incubated for 15 min at 56° C., after which the samples were transferred to liquid twinkle tubes and treated with 3 ml of OptiPhase HiSafe 3 twinkle solution (PerkinElmer).

[5] = target: T2, ERβ; test: Competitive binding against [6,7-3H(N)]estradiol in COS-1 cells transfected with human ERβ; conditions: for IC50: ERβ IC50, COS-1 cells, competition against labeled E2, 2 hours at 37° C.; for ERβ RBA (relative binding affinity): relative to E2 = 100.0
Method: as §2, §3

T2 sequence (Q92731 whole entry): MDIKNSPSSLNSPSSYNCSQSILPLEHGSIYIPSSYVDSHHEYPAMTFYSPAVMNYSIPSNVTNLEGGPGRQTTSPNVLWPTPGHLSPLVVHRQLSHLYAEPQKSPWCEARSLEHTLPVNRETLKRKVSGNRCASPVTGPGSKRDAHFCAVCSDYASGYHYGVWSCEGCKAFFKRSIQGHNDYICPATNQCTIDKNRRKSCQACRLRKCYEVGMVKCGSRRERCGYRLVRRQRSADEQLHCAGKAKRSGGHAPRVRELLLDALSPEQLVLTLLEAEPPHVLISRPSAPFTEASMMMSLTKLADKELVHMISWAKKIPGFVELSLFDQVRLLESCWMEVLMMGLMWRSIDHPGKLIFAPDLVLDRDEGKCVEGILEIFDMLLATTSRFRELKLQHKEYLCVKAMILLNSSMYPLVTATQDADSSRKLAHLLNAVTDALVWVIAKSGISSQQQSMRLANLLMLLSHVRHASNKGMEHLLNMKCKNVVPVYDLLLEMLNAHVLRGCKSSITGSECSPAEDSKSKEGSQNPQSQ

ERα receptor antagonism relative to 100 nM E2 corresponding 100 [1] | ERα receptor activation relative to 10 nM E2 corresponding 100 [2] | ERβ receptor activation relative to 10 nM E2 corresponding 100 [3] | IC50 [4] | ERα RBA (relative binding affinity) [4] | IC50 [5] | ERβ RBA (relative binding affinity) [5] | melting point | activation at 10 µM ([3]; HEK293, 24 h, read-out: ERβ receptor activation relative to 10 nM E2 corresponding 100, sample concentration 10 μM, mean of at least three independent transfections) | SMILES
115.2 | 0.3% | 1.3% | – | – | – | – | – | – | Oc1ccc(CCCC2=NOC(Cc3ccccc3)C2)cc1O (single isomer, unassigned) [102a, 5-Benzyl-3-[3-(3,4-dihydroxy-phenyl)-propyl]-4,5-dihydro-isoxazole]
– | 11.5% | 17.2% | 5600 nM | 0.035% | 5400 nM | 0.036% | – | – | c1ccc(CCCC2=NOC(c3ccccc3)C2)cc1 (single isomer, unassigned) [113b, 5-Phenyl-3-(3-phenyl-propyl)-4,5-dihydro-isoxazole]
– | −4.0% | – | – | – | – | – | 88.1 to 89.2 °C | 7.3% | COc1ccc(C2=NOC(Cc3ccc(OC)c(OC)c3)C2)cc1 (centres unmarked) [16ab, 5-(3,4-Dimethoxybenzyl)-3-(4-methoxyphenyl)-4,5-dihydroisoxazole]
104.8 | 2.1% | −1.3% | – | – | – | – | – | – | Oc1ccc(CCCC2=NOC(Cc3ccccc3)C2)cc1O (single isomer, unassigned) [102b, 5-Benzyl-3-[3-(3,4-dihydroxy-phenyl)-propyl]-4,5-dihydro-isoxazole]
95.6 | 11.8% | −0.4% | – | – | – | – | – | – | CC1(c2ccccc2)CC(CCc2ccccc2O)=NO1 (single isomer, unassigned) [85a, 3-[2-(2-Hydroxy-phenyl)-ethyl]-5-methyl-5-phenyl-4,5-dihydro-isoxazole]
57.9 | 21.7% | 30.0% | – | – | – | – | – | – | CC1(c2ccccc2)CC(CCc2ccccc2O)=NO1 (single isomer, unassigned) [85b, 3-[2-(2-Hydroxy-phenyl)-ethyl]-5-methyl-5-phenyl-4,5-dihydro-isoxazole]
93.6 | 4.8% | 0.2% | – | – | – | – | – | – | Oc1ccc(CC2=NOC(c3ccccc3)C2)cc1 (single isomer, unassigned) [84a, 3-(4-Hydroxy-benzyl)-5-phenyl-4,5-dihydro-isoxazole]
– | 24.3% | 41.5% | 2150 nM | 0.091% | 1090 nM | 0.180% | – | – | Oc1ccc(CCC2=NOC(Cc3ccccc3)C2)cc1 (single isomer, unassigned) [93b, 5-Benzyl-3-[2-(4-hydroxy-phenyl)-ethyl]-4,5-dihydro-isoxazole]
– | 65.0% | 77.1% | 30 nM | 6.533% | 1250 nM | 0.157% | – | – | Oc1ccc(CCCC2=NOC(c3ccccc3)C2)cc1 (single isomer, unassigned) [88b, 3-[3-(4-Hydroxy-phenyl)-propyl]-5-phenyl-4,5-dihydroisoxazole]
64.5 | 7.6% | 18.5% | – | – | – | – | – | – | Oc1ccc(CC2=NOC(c3ccccc3)C2)cc1 (single isomer, unassigned) [84b, 3-(4-Hydroxy-benzyl)-5-phenyl-4,5-dihydro-isoxazole]
– | 171.1% | 143.1% | 215 nM | 0.912% | 1250 nM | 0.157% | – | – | Oc1ccc(CCC2=NOC(Cc3ccccc3)C2)cc1 (single isomer, unassigned) [93a, 5-Benzyl-3-[2-(4-hydroxy-phenyl)-ethyl]-4,5-dihydro-isoxazole]
– | 103.6% | 44.7% | 12.5 nM | 15.68% | 2050 nM | 0.096% | – | – | Oc1ccc(CCCC2=NOC(c3ccccc3)C2)cc1 (single isomer, unassigned) [88a, 3-[3-(4-Hydroxy-phenyl)-propyl]-5-phenyl-4,5-dihydroisoxazole]
– | 86.5% | 30.1% | 23000 nM | 0.009% | 20000 nM | 0.010% | – | – | CC1(c2ccccc2)CC(CCCc2ccc(O)cc2)=NO1 (single isomer, unassigned) [90b, 3-[3-(4-Hydroxy-phenyl)-propyl]-5-methyl-5-phenyl-4,5-dihydro-isoxazole]
– | 88.8% | 64.8% | 250 nM | 0.784% | 3100 nM | 0.063% | – | – | CC1(c2ccccc2)CC(CCCc2ccc(O)cc2)=NO1 (single isomer, unassigned) [90a, 3-[3-(4-Hydroxy-phenyl)-propyl]-5-methyl-5-phenyl-4,5-dihydro-isoxazole]
– | 44.3% | −3.1% | 1900 nM | 0.103% | – | – | – | – | c1ccc(CCCC2=NOC(c3ccccc3)C2)cc1 (single isomer, unassigned) [113a, 5-Phenyl-3-(3-phenyl-propyl)-4,5-dihydro-isoxazole]
132.9 | – | – | – | – | – | – | – | – | Oc1ccc(CCCC2=NOC(Cc3ccccc3)C2)cc1 (centres unmarked) [99ab, 5-Benzyl-3-[3-(4-hydroxy-phenyl)-propyl]-4,5-dihydro-isoxazole]
– | – | – | – | – | – | – | 127.9 to 130.9 °C | – | Clc1ccc(C2=NOC(Cc3cccc4ccccc34)C2)cc1 (centres unmarked) [compound 41, 3-(4-Chlorophenyl)-5-naphthalen-1-ylmethyl-4,5-dihydro-isoxazole]
39.4 | – | – | – | – | – | – | – | – | Oc1ccc(CCCC2=NOC(Cc3ccc(O)cc3)C2)cc1 (centres unmarked) [101ab, 5-(4-Hydroxy-benzyl)-3-[3-(4-hydroxy-phenyl)-propyl]-4,5-dihydro-isoxazole]
– | – | – | – | – | – | – | 109.9 to 111.2 °C | – | COc1ccccc1CC1CC(c2ccc(Cl)cc2)=NO1 (centres unmarked) [compound 36, 3-(4-Chlorophenyl)-5-(2-methoxybenzyl)-4,5-dihydroisoxazole]
